# ± gives the standard deviation of the averaged measurements.
# Experiment: TIMS collisional cross section (CCS, N2) of the lipid ion; higher = larger ion cross section
# Settings: ionization mode: positive, one isomer drawn
SMILES,TIMS collisional cross section (sample type: HeLa) [Å²],TIMS collisional cross section (sample type: plasma) [Å²],TIMS collisional cross section (sample type: Liver) [Å²]
CCCCC/C=C\C/C=C\CCCCCCCC(=O)OC[C@@H](COC(=O)CCCCCCC/C=C\CCCCCCCC)OC(=O)CCCCCCC/C=C\CCCCCCCC [TG 18:1_18:1_18:2] (ion (formula + adduct): [C57H102O6+NH4] 1+),324.3,324.25 ± 0.35,
CCCCC/C=C\C/C=C\C/C=C\CCCCCCC(=O)OC[C@@H](COC(=O)CCCCCCC/C=C\CCCCCCCC)OC(=O)CCCCCCC/C=C\CCCCCCCC [TG 18:1_18:1_20:3] (ion (formula + adduct): [C59H104O6+NH4] 1+),,,330.2
CCCCC/C=C\C/C=C\C/C=C\C/C=C\CCCCCC(=O)OC[C@@H](COC(=O)CCCCCCC/C=C\CCCCCCCC)OC(=O)CCCCCCC/C=C\CCCCCCCC [TG 18:1_18:1_22:4] (ion (formula + adduct): [C61H106O6+NH4] 1+),,333.8,334.9
CC/C=C\C/C=C\C/C=C\C/C=C\C/C=C\CCCCCC(=O)OC[C@@H](COC(=O)CCCCCCC/C=C\CCCCCCCC)OC(=O)CCCCCCC/C=C\CCCCCCCC [TG 18:1_18:1_22:5] (ion (formula + adduct): [C61H104O6+NH4] 1+),332.3,332.6,
CC/C=C\C/C=C\C/C=C\C/C=C\C/C=C\C/C=C\CCC(=O)OC[C@@H](COC(=O)CCCCCCC/C=C\CCCCCCCC)OC(=O)CCCCCCC/C=C\CCCCCCCC [TG 18:1_18:1_22:6] (ion (formula + adduct): [C61H102O6+NH4] 1+),331.3,,
CCCCC/C=C\C/C=C\CCCCCCCC(=O)OC[C@@H](COC(=O)CCCCCCC/C=C\CCCCCCCC)OC(=O)CCCCCCC/C=C\C/C=C\CCCCC [TG 18:1_18:2_18:2] (ion (formula + adduct): [C57H100O6+NH4] 1+),,322.17 ± 0.57,322.5 ± 0.14
CC/C=C\C/C=C\C/C=C\CCCCCCCC(=O)OC[C@@H](COC(=O)CCCCCCC/C=C\CCCCCCCC)OC(=O)CCCCCCC/C=C\C/C=C\CCCCC [TG 18:1_18:2_18:3] (ion (formula + adduct): [C57H98O6+NH4] 1+),,319.9,
CCCCC/C=C\C/C=C\CCCCCCCC(=O)O[C@H](COC(=O)CCCCCCC/C=C\CCCCCCCC)COC(=O)CCCCCCC/C=C\CCCCCCCCC [TG 18:1_18:2_19:1] (ion (formula + adduct): [C58H104O6+NH4] 1+),327.7,327.3,327
CCCCC/C=C\C/C=C\C/C=C\C/C=C\CCCC(=O)OC[C@@H](COC(=O)CCCCCCC/C=C\CCCCCCCC)OC(=O)CCCCCCC/C=C\C/C=C\CCCCC [TG 18:1_18:2_20:4] (ion (formula + adduct): [C59H100O6+NH4] 1+),,,325.7
CCCCC/C=C\C/C=C\CCCCCCCCCCCC(=O)OC[C@@H](COC(=O)CCCCCCC/C=C\CCCCCCCC)OC(=O)CCCCCCC/C=C\C/C=C\CCCCC [TG 18:1_18:2_22:2] (ion (formula + adduct): [C61H108O6+NH4] 1+),,335.8,
CCCCC/C=C\C/C=C\C/C=C\C/C=C\CCCCCC(=O)OC[C@@H](COC(=O)CCCCCCC/C=C\CCCCCCCC)OC(=O)CCCCCCC/C=C\C/C=C\CCCCC [TG 18:1_18:2_22:4] (ion (formula + adduct): [C61H104O6+NH4] 1+),,332.1,332.5
CC/C=C\C/C=C\C/C=C\C/C=C\C/C=C\C/C=C\CCC(=O)OC[C@@H](COC(=O)CCCCCCC/C=C\CCCCCCCC)OC(=O)CCCCCCC/C=C\C/C=C\CCCCC [TG 18:1_18:2_22:6] (ion (formula + adduct): [C61H100O6+NH4] 1+),,329,
CCCCCCCC/C=C\CCCCCCCC(=O)OC[C@H](COC(=O)CCCCCCCCCCCCCCCCCCCCC)OC(=O)CCCCCCCCCCCCCCCCCC [TG 18:1_19:0_22:0] (ion (formula + adduct): [C62H118O6+NH4] 1+),,,344.9
CC/C=C\C/C=C\C/C=C\C/C=C\C/C=C\C/C=C\CCC(=O)OC[C@@H](COC(=O)CCCCCCC/C=C\CCCCCCCC)OC(=O)CCCCCCC/C=C\CCCCCCCCC [TG 18:1_19:1_22:6] (ion (formula + adduct): [C62H104O6+NH4] 1+),334.6,,
CCCCCCCC/C=C\CCCCCCCC(=O)OC[C@H](COC(=O)CCCCCCCCCCCCCCCCCCCC)OC(=O)CCCCCCCCCCCCCCCCCCC [TG 18:1_20:0_21:0] (ion (formula + adduct): [C62H118O6+NH4] 1+),344.2,,
CCCCCCCC/C=C\CCCCCCCC(=O)OC[C@H](COC(=O)CCCCCCCCCCCCCCCCCCCCC)OC(=O)CCCCCCCCCCCCCCCCCCC [TG 18:1_20:0_22:0] (ion (formula + adduct): [C63H120O6+NH4] 1+),346.3,347.4,
CCCCC/C=C\C/C=C\C/C=C\CCCCCCC(=O)OC[C@@H](COC(=O)CCCCCCC/C=C\CCCCCCCC)OC(=O)CCCCCCCCC/C=C\CCCCCCCC [TG 18:1_20:1_20:3] (ion (formula + adduct): [C61H108O6+NH4] 1+),336.4,,

# The next lines start with the values.
TIMS collisional cross section (sample type: HeLa) [Å²],TIMS collisional cross section (sample type: plasma) [Å²],TIMS collisional cross section (sample type: Liver) [Å²],SMILES
329.1,,,CCCCCCCC/C=C\CCCCCCCC(=O)OC[C@H](COC(=O)CCCCCCC/C=C\CCCCCCCCC)OC(=O)CCCCCCC/C=C\CCCCCCCC [TG 18:1_18:1_19:1] (ion (formula + adduct): [C58H106O6+NH4] 1+)
332.1,332.4,,CCCCCCCC/C=C\CCCCCCCCCC(=O)OC[C@@H](COC(=O)CCCCCCC/C=C\CCCCCCCC)OC(=O)CCCCCCC/C=C\CCCCCCCC [TG 18:1_18:1_20:1] (ion (formula + adduct): [C59H108O6+NH4] 1+)
,336.2,,CCCCCCCC/C=C\CCCCCCCC(=O)OC[C@H](COC(=O)CCCCCCCCCCCCCCCCCCCC)OC(=O)CCCCCCC/C=C\CCCCCCCC [TG 18:1_18:1_21:0] (ion (formula + adduct): [C60H112O6+NH4] 1+)
,339.3,339.7,CCCCCCCC/C=C\CCCCCCCC(=O)OC[C@H](COC(=O)CCCCCCCCCCCCCCCCCCCCC)OC(=O)CCCCCCC/C=C\CCCCCCCC [TG 18:1_18:1_22:0] (ion (formula + adduct): [C61H114O6+NH4] 1+)
337.8,,,CCCCCCCC/C=C\CCCCCCCCCCCC(=O)OC[C@@H](COC(=O)CCCCCCC/C=C\CCCCCCCC)OC(=O)CCCCCCC/C=C\CCCCCCCC [TG 18:1_18:1_22:1] (ion (formula + adduct): [C61H112O6+NH4] 1+)
,,329.2,CCCCC/C=C\C/C=C\CCCCCCCC(=O)O[C@H](COC(=O)CCCCCCC/C=C\CCCCCCCC)COC(=O)CCCCCCCCCCCCCCCCCC [TG 18:1_18:2_19:0] (ion (formula + adduct): [C58H106O6+NH4] 1+)
,,332.3,CCCCC/C=C\C/C=C\CCCCCCCC(=O)O[C@H](COC(=O)CCCCCCC/C=C\CCCCCCCC)COC(=O)CCCCCCCCCCCCCCCCCCC [TG 18:1_18:2_20:0] (ion (formula + adduct): [C59H108O6+NH4] 1+)
331.8,330.8,,CCCCC/C=C\C/C=C\CCCCCCCC(=O)O[C@H](COC(=O)CCCCCCC/C=C\CCCCCCCC)COC(=O)CCCCCCCCC/C=C\CCCCCCCC [TG 18:1_18:2_20:1] (ion (formula + adduct): [C59H106O6+NH4] 1+)
,,334.4,CCCCC/C=C\C/C=C\CCCCCCCC(=O)O[C@H](COC(=O)CCCCCCC/C=C\CCCCCCCC)COC(=O)CCCCCCCCCCCCCCCCCCCC [TG 18:1_18:2_21:0] (ion (formula + adduct): [C60H110O6+NH4] 1+)
,337.6,338.2,CCCCC/C=C\C/C=C\CCCCCCCC(=O)O[C@H](COC(=O)CCCCCCC/C=C\CCCCCCCC)COC(=O)CCCCCCCCCCCCCCCCCCCCC [TG 18:1_18:2_22:0] (ion (formula + adduct): [C61H112O6+NH4] 1+)
,335,335.3,CCCCC/C=C\C/C=C\CCCCCCCC(=O)O[C@H](COC(=O)CCCCCCC/C=C\CCCCCCCC)COC(=O)CCCCCCCCCCC/C=C\CCCCCCCC [TG 18:1_18:2_22:1] (ion (formula + adduct): [C61H110O6+NH4] 1+)
336.7,,337,CCCCCCCC/C=C\CCCCCCCCCC(=O)OC[C@@H](COC(=O)CCCCCCC/C=C\CCCCCCCC)OC(=O)CCCCCCCCCCCCCCCCCC [TG 18:1_19:0_20:1] (ion (formula + adduct): [C60H112O6+NH4] 1+)
,,342.9,CCCCCCCC/C=C\CCCCCCCCCC(=O)O[C@H](COC(=O)CCCCCCC/C=C\CCCCCCCC)COC(=O)CCCCCCCCCCCCCCCCCCCC [TG 18:1_20:1_21:0] (ion (formula + adduct): [C62H116O6+NH4] 1+)
344.7,,345.8,CCCCCCCC/C=C\CCCCCCCCCC(=O)O[C@H](COC(=O)CCCCCCC/C=C\CCCCCCCC)COC(=O)CCCCCCCCCCCCCCCCCCCCC [TG 18:1_20:1_22:0] (ion (formula + adduct): [C63H118O6+NH4] 1+)
,343,342.9,CCCCCCCC/C=C\CCCCCCCCCCCC(=O)OC[C@@H](COC(=O)CCCCCCC/C=C\CCCCCCCC)OC(=O)CCCCCCCCC/C=C\CCCCCCCC [TG 18:1_20:1_22:1] (ion (formula + adduct): [C63H116O6+NH4] 1+)
